This is an account of results in patent publication US9719191B2, “Methods for identifying ligands that target nucleic acid molecules and nucleic acid structural motifs” (The Research Foundation for The State University of New York, priority 2006, dated 2017).

Read-outs that look alike come from different tables or passages of the source.

Series [1] has as its system immobilized 6′-N-5-hexynoate kanamycin A (2) / radiolabeled IL 7. The experiment in a line: Array-based competitive binding assay: competitor RNA against trace 32P-labeled IL 7 on immobilized 2. Particulars: for IC50: read-out: IC50 (concentration of competitor that inhibited 50% of the binding of radioactively labeled IL 7), competitor RNA, immobilized 2 in microwells, 30 min at RT. The text has this: Typically microarray experiments can be used to probe the binding of a variety of small molecules to a single or a few analytes at once. In order to increase the number of conditions that can be probed on a single array, we affixed a silicon gasket that created 50 microwells on the surface of each chip (FIG. 5A). These microwells converted the array into a miniaturized 50-well plate that is easily functionalized to display kanamycin. Compound 2 was immobilized in each microwell at a constant concentration. Binding experiments were completed by delivering 10 μL of a solution containing serially diluted concentrations of the internal loop of interest and trace 5′end ^32P labeled IL 7 into each microwell. Dose response curves were constructed and fit to determine the concentration of competitor that inhibited 50% of the binding of the radioactively labeled RNA (FIG. 3, FIG. 5B, and FIG. 5C). FIG. 5B is a representative autoradiogram for binding selected RNAs relative to binding of control oligonucleotides R2, R3, D1 and D2, and R4, the cassette without an internal loop.
In order to determine which concentration of 2 was optimal for competitive binding assays, serially diluted 2 was applied to the chip surface and allowed to react for 2 h at RT inside the microwell of a silicon gasket (GRACE Biolabs, CWCS 50R-1.0, C-24780) (FIG. 5A). Each of the wells was washed twice with water, and the slide was dried in air. The 5′ end ^32P radiolabeled IL 7 was annealed in 1×HB+40 μg/mL of BSA at 60° C. for 5 min and allowed to slow cool on the benchtop for 10 min. It is important to note that the hybridization buffer contains 1 mM EDTA, or 50 equivalents compared to the amount of Cu^2+ used for the click reaction. […] The annealed RNA oligonucleotide was hybridized with the chip surface for 30 min at RT. […]
IC50's were determined by incubating serially diluted competitor RNA and trace radiolabeled IL 7 in microwells formed using a silicon gasket. […] The data were quantified using Bio-Rad's QuantityOne software, and the IC50's were determined using SigmaPlot's four-parameter logistical curve fit.

A further series deals with IL 34. Put plainly: Competitive binding assay against 21-FL. Particulars: competition with 10 nM 21-FL, 75 nM IL 34. On the procedure: (§1) To determine if selected loops have aminoglycoside preferences, the binding of five aminoglycosides, 21, kanamycin A, kanamycin B, tobramycin, and neamine (FIG. 7) to the pool of RNAs from spot 2+ (FIG. 10C) was probed using a competitive binding assay. […] We also tested a single RNA sequence identified to bind 21, IL 34, in the same manner.
(§2) A solution containing 75 nM IL 34 was refolded in 1× hybridization buffer+40 μg/mL BSA at 60° C. for 5 min. After slow cooling on the benchtop, 21-FL was added to a final concentration of 10 nM. The competing, unlabeled aminoglycoside was then added, and the resulting solution was serially diluted into 1× hybridization buffer+40 μg/mL BSA+10 nM 21-FL containing 75 nM IL 34. The solutions were equilibrated for 30 min at RT, and the fluorescence intensities were measured on a Bio-Tek HT fluorescence plate reader.

In series [2] the target is pool of RNAs from spot 2+. The experiment in a line: Competitive binding assay against 21-FL. Particulars: for Kd: competition with 10 nM 21-FL. On the procedure: as §1, §2
Series [3] addresses 1×1 CC internal loop derived from the untranslated region in thymidylate synthase mRNA. Particulars: 1 mM MgCl2 and CaCl2, 150 mM NaCl, 5 mM KCl, 20 mM HEPES (pH 7.5); read-out: dissociation constant; cited from earlier work.
Another series has as its system IL 7. To be noted: RNase A and S1 nuclease, compound 0, 0.1, 1, 10, 100 μM. As to the method:
(§3) The binding site of 2 was determined by enzymatic probing of IL 7 and R4 in the presence or absence of 2 with RNase A and S1 nuclease.
(§4) The binding site(s) of 2 was determined using a nuclease protection assay. For RNase A mapping experiments, radiolabeled oligonucleotide was annealed as described above. After slow cooling, serially diluted concentrations of 2 were added, and the resulting solution was allowed to equilibrate for 30 min at RT. Approximately 6 μunits of RNase A were added, and the reaction was allowed to proceed for 10 min. The reaction was quenched by addition of an equal volume of stop buffer, and the products were separated on a denaturing 17% polyacrylamide gel.
(§5) For S1 nuclease mapping experiments, the radiolabeled oligonucleotide was annealed as described except the buffer used was 50 mM sodium acetate (pH 4.5), 280 mM NaCl, and 4.5 mM ZnSO4. The solution was allowed to equilibrate for 30 min at RT after the addition of serially diluted concentrations of 2, and then 10 units of S1 were added. The reaction was quenched after 10 min at RT, and the products were separated on a denaturing 17% polyacrylamide gel.

A further series concerns hairpin cassette R4. To be noted: RNase A and S1 nuclease, compound 0, 0.1, 1, 10, 100 μM. As to the method:
as §3, §4, §5

The test system of another series is IL 16. To be noted: in presence of 2. On the procedure:
as §3

Another series relates to IL 1. Particulars: in presence of 2. On the procedure:
as §3

The target in series [4] is pool of RNAs harvested from position 1+. The experiment in a line: Fluorescence-based direct binding assay with 21-FL. Particulars: higher ligand loading position 1+.
Series [5] has as its target pool of RNAs harvested from position 2+. Put plainly: Fluorescence-based direct binding assay with 21-FL. Particulars: lower ligand loading position 2+.
The target of series [6] is RNA internal loop library 22. Put plainly: Fluorescence-based direct binding assay with 21-FL. To be noted: entire library.
Series [7] has as its target chase oligonucleotide 23 (stem mimic duplex). Put plainly: Fluorescence-based direct binding assay with 21-FL. Particulars: no change in fluorescence intensity up to 5 μM.
The target in series [8] is chase oligonucleotide 24 (GAAA hairpin mimic). Put plainly: Fluorescence-based direct binding assay with 21-FL. To be noted: no change in fluorescence intensity up to 5 μM.
The target in series [9] is DNA chase oligonucleotides 25+26. Put plainly: Fluorescence-based direct binding assay with 21-FL. To be noted: no change in fluorescence intensity up to 5 μM.
The next series has as its target empty cassette RNA 27. The experiment in a line: Fluorescence-based direct binding assay with 21-FL.
The target in a further series is tRNAphe. The experiment in a line: Fluorescence-based direct binding assay with 21-FL.
For series [10], the system named is RNA internal loop library 22. Particulars: chase oligonucleotides 23-26 in excess.
Series [11] concerns oligonucleotide mimic of the bacterial rRNA A-site. To be noted: 6′ NH2 acetylated; cited from earlier work.
For series [12], the system named is RNA 3×3 internal loop library (R1). The experiment in a line: Resin-based selection of RNA internal loops with immobilized kanamycin A. It is filed as binding. To be noted: based on initial radioactivity eluted with kanamycin A; about 150 members. As to the method:
Selections were completed by incubating a solution that contained 5′ end ^32P-labeled R1 in buffer with resin-immobilized kanamycin A. In addition to R1, a variety of other oligonucleotides were added to the incubation solution (R2-R4, D1, D2). […] The small number may be due to the manner in which the ligand was immobilized onto the resin (impairs the 6′ amino group from forming stabilizing contacts with RNA).
Each of the oligonucleotides was refolded separately in Hybridization Buffer (“HB”) containing 8 mM […] pH 7.0, 1 mM EDTA, and 185 mM NaCl by heating for 5 min at 65° C. and then cooling to RT on the benchtop. Oligonucleotides were then transferred to 4° C. and mixed together. Before the oligonucleotides were hybridized with the resin, 200 μg of BSA was added to the samples. Each selection experiment was completed with 10 picomoles of 5′-end labeled R1 and 20-fold higher concentration of each control oligonucleotide (R2-R4, D1, D2) over the concentration of R1.
A 100 μL aliquot of resin slurry (10 μL of resin) was placed into a 2.5 mL BioRad column and washed 3× with 1 mL of 4° C. HB. […] At this stage, liquid scintillation counting was used to ensure that only background radioactivity was being eluted from the column. […]

Where [13] appears, read: listed as 6′ hexynoate kanamycin A.

For “IL 2: selected RNA internal loop (SEQ ID NO:13), 5′UU/3′UC 2×2 loop, one closing A-U pair in different orientation (GGGAGAGGGUUUAAUAUCUACGAAAGUAUUUAUUGGAUCCGCAAGG; listed as RNA, chemistry not given here)”, in series [1], the IC50 stood at 3.3 nM.

As for `NC[C@H]1O[C@H](O[C@H]2[C@H](O)[C@@H](O)[C@H](N)C[C@@H]2N)[C@H](N)[C@@H](O)[C@@H]1O` [neamine], the Kd result at IL 34 was “much weaker”; in [2], > 500 nM.

Take `NC[C@H]1O[C@H](O[C@H]2[C@H](O)[C@@H](O[C@H]3O[C@H](CO)[C@@H](O)[C@H](N)[C@H]3O)[C@H](N)C[C@@H]2N)[C@H](N)[C@@H](O)[C@@H]1O` [kanamycin B]: the Kd was 5 nM at IL 34 (read-out: Kd), 12 nM in [2] and 1100 nM in series [3].

As for `NC[C@H]1O[C@H](O[C@H]2[C@H](O)[C@@H](O[C@H]3O[C@H](CO)[C@@H](O)[C@H](N)[C@H]3O)[C@H](N)C[C@@H]2N)[C@H](N)C[C@@H]1O` [tobramycin], the results for the Kd result (on IL 34; in [2]; in series [3]) were “much weaker”, 85 nM and 870 nM, respectively. For the same compound, in series [2] (relative to 21, kanamycin A and kanamycin B), the fold weaker binding result is given as “approximately 9 fold”.

In the case of “IL 1: selected RNA internal loop (SEQ ID NO:12), 5′UU/3′UC 2×2 loop closed by A-U pairs (GGGAGAGGGUUUAAUUUUUACGAAAGUAACUAUUGGAUCCGCAAGG; listed as RNA, chemistry not given here)”, the IC50 in series [1] was 2.2 nM.

As to `C#CCCCC(=O)NC[C@@H]1O[C@@H](O[C@H]2[C@H](O)[C@@H](O[C@@H]3O[C@@H](CO)[C@H](O)[C@@H](N)[C@@H]3O)[C@H](N)C[C@@H]2N)[C@@H](O)[C@H](O)[C@H]1O` [Compound 21, 6′-N-5-hexynoate kanamycin A], the “nucleotides protected from cleavage” value in the series on IL 7 (listed as 2) was “only nucleotides in the loop and the surrounding base pairs in IL 7 are protected from cleavage”; in the series with IL 7 (setting [13]), “occurs only in the randomized regions”; with hairpin cassette R4 (listed as 2), “No nucleotides in the cassette R4 are protected”; in the series on hairpin cassette R4 (setting [13]), “no nucleotides are protected from modification”. Moreover, the “DEPC modification of loop nucleotides” value with IL 16 and in the series with IL 1 was “decreased modification” throughout. In addition, the Kd in series [4] is 65 nM; in [5] it was 11 nM; in series [6], 280 nM; in series [7] it was > 5000 nM; in [8], > 5000 nM; in series [9], > 5000 nM. The Kd at empty cassette RNA 27 worked out at 1300 nM; on tRNAphe, 700 nM; on IL 34 (read-out: Kd), 7 nM; in series [2] it was 12 nM. The “binding of library members on the array” value in series [10] was “concentration-dependent binding”.

Consider “IL 17: selected RNA internal loop (SEQ ID NO:14 series; SEQ ID NO:28), U replaced with C and closing pair GC (GGGAGAGGGUUUAAUCUUUACGAAAGUACCGAUUGGAUCCGCAAGG; listed as RNA, chemistry not given here)”, for which the “fold weaker binding relative to IL 1 and IL 2” value in [1] is ~10 fold.

As for `CC(=O)NCC1OC(OC2C(N)CC(N)C(OC3OC(CO)C(O)C(N)C3O)C2O)C(O)C(O)C1O` (stereo not drawn) [6′ acetylated kanamycin A], in [11], the “reduction in binding relative to the parent aminoglycoside” value is “several orders of magnitude”.

With `NC[C@H]1O[C@H](O[C@H]2[C@H](O)[C@@H](O[C@H]3O[C@H](CO)[C@@H](O)[C@H](N)[C@H]3O)[C@H](N)C[C@@H]2N)[C@H](O)[C@@H](O)[C@@H]1O` [kanamycin A], in series [12], the “percentage of the 4096-member library bound to immobilized ligand” value is given as ~4%. The Kd on IL 34 (read-out: Kd) stood at 5 nM; in [2] it was 9 nM.
